Test results: patent US20230365559A1, “NOVEL AMINOPYRIDINES AND THEIR USE IN TREATING CANCER” (priority 2020, published 2023)
“And” between values parts separate entries of the source, which are not always exact repeats. Equal entries are not always repeated. Where two headings read alike, the source gives them in different places.

What was measured:
[1] = target: human DNA-PK (Homo sapiens, UniProt P78527); assay: Inhibition of DNA-PKcs kinase activity, HotSpot assay (Reaction Biology), [γ-33P]-ATP phosphorylation of peptide substrate; format: biochemical
[2] = target: human PI3Kα (p110α/p85α) (Homo sapiens, UniProt P42336); assay: Inhibition of PI3Kα kinase activity, ADP-Glo Assay (Reaction Biology); format: biochemical; conditions: 10 μM ATP; mean of two replicates; Table 12; read-out: Inhibition of kinase activity (as IC50) PICK
[3] = target: ATM (Homo sapiens, UniProt Q13315); assay: ATM Human PIKK Kinase Enzymatic ELISA/EIA Assay, KinaseProfiler (Eurofins Discovery); format: biochemical; conditions: KinaseProfiler, Km ATP; Table 15; read-out: Inhibition of PIKK kinase activity ATM
[4] = target: ATR/ATRIP (Homo sapiens, UniProt Q13535); assay: ATR/ATRIP Human PIKK Kinase Enzymatic Radiometric Assay, KinaseProfiler (Eurofins Discovery); format: biochemical; conditions: Km ATP, Table 15, read-out: Inhibition of PIKK kinase activity ATR
[5] = system: UT-SCC-54C cells; assay: Radiosensitisation of UT-SCC-54C HNSCC cells, regrowth (sulforhodamine B) assay, oxic (Table 16); format: cell-based, human; conditions: for IC50: Homo sapiens, read-out: IC50; for S50: compound in combination with 3 Gy of radiation, 50% inhibition of regrowth fraction, UT-SCC-54C; for S50 / radiosensitisation / differential growth inhibition of UT-SCC-54C cells: oxic; for radiosensitisation / differential growth inhibition of UT-SCC-54C cells: 0 or 3 Gy, regrowth assay
[6] = system: HAP1 cells; assay: Radiosensitisation of HAP1 wild type cells, regrowth assay; format: cell-based, human; conditions: for radiosensitisation / differential growth inhibition of HAP1 cells: 3 Gy cobalt-60 gamma irradiation relative to radiation-only; for IC50: Homo sapiens, HAP1, read-out: HAP1 wt IC50
[7] = system: HAP1/PRKDC−/− cells; assay: Radiosensitisation of DNA-PK null HAP1/PRKDC−/− cells, regrowth assay; format: cell-based, human; conditions: for radiosensitisation / differential growth inhibition of DNA-PK null HAP1 line: 3 Gy, HAP1/PRKDC−/−; for IC50: Homo sapiens, HAP1
[8] = target: Ser2056 of DNA-PKcs (Homo sapiens, UniProt P78527); assay: Inhibition of cellular autophosphorylation at Ser2056 of DNA-PKcs in UT-SCC-54C cells, western immunoblotting; format: cell-based
[9] = target: T1, Ser1981 of ataxia-telangiectasia mutated (ATM) (Homo sapiens, UniProt Q13315); assay: Inhibition of phosphorylation of Ser1981 of ATM in UT-SCC-54C cells, western immunoblotting; format: cell-based; conditions: oxia, 10 Gy, FIG. 7 (10 μM)
T1 construct: Ser1981 of ataxia-telangiectasia mutated (ATM) in UT-SCC-54C cells

[10] = system: UT-SCC-54C cells; assay: Radiosensitisation of UT-SCC-54C HNSCC cells, clonogenic survival, oxic and anoxic (Table 18); format: cell-based, human; conditions: for Plating efficiency drug/no drug: no radiation; for SER (sensitiser enhancement ratio): UT-SCC-54C, anoxic conditions, FIG. 10; for SER (sensitiser enhancement ratio) / radiosensitisation of UT-SCC-54C cells under oxic conditions: clonogenic survival; for radiosensitisation of UT-SCC-54C cells under oxic conditions: FIG. 9
[11] = target: human mTOR (Homo sapiens, UniProt P42345); assay: Inhibition of mTOR kinase activity, HotSpot assay, phosphorylation of 4EPB1
[12] = system: UT-SCC-54C tumour xenografts; assay: Radiosensitisation of UT-SCC-54C HNSCC tumours, ex vivo clonogenic assay of tumour xenografts; format: in vivo, female NIH-III mice
[13] = system: UT-SCC-54C cells; assay: Hypoxia-selective metabolism of prodrugs by UT-SCC-54C cells, LC-MS; conditions: 10 μM, 0-3 h
[14] = 10 μM ATP, 10 μg/ml DNA, mean of two replicates, Table 12, read-out: Inhibition of kinase activity (as IC50) DNA-PK (converted)
[15] = HotSpot assay Reaction Biology Corp., Table 15, read-out: Inhibition of PIKK kinase activity DNA-PK
[16] = Inhibition of PIKK kinase activity mTOR/FRAP (nM), HotSpot assay Reaction Biology Corp., Table 15
[17] = Inhibition of kinase activity (as IC50) mTOR (nM), 10 μM ATP, mean of two replicates, Table 12

human PI3Kα (p110α/p85α), sequence (P42336 whole entry): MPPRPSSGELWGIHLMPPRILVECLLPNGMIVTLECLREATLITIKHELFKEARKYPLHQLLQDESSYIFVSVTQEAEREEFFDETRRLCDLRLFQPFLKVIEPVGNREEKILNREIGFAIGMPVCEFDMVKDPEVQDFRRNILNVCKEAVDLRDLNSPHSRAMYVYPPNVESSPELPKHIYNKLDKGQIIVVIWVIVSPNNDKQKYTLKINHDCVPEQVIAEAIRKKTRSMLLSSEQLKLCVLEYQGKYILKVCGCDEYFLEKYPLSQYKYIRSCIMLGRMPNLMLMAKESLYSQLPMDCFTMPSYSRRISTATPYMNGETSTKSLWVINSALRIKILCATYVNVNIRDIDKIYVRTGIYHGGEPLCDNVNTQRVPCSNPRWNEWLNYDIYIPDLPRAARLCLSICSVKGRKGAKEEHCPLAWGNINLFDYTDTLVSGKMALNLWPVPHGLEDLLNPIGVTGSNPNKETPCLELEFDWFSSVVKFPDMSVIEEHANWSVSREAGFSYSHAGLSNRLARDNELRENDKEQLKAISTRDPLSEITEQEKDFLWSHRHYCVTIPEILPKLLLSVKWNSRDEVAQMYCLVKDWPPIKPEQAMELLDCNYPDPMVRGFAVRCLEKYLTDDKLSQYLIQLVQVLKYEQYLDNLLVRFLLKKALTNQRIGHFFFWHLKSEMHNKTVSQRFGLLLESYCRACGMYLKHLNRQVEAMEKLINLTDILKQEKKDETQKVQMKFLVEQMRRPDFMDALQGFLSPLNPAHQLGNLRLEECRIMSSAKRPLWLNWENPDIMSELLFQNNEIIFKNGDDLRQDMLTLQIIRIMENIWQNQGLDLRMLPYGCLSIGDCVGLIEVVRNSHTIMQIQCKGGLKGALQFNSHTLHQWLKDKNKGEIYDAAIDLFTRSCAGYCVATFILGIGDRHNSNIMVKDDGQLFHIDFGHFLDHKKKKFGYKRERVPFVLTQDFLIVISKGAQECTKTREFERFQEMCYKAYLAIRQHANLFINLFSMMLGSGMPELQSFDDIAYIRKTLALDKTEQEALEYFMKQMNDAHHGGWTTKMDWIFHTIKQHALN
human PI3Kα (p110α/p85α), sequence (P27986 whole entry partner): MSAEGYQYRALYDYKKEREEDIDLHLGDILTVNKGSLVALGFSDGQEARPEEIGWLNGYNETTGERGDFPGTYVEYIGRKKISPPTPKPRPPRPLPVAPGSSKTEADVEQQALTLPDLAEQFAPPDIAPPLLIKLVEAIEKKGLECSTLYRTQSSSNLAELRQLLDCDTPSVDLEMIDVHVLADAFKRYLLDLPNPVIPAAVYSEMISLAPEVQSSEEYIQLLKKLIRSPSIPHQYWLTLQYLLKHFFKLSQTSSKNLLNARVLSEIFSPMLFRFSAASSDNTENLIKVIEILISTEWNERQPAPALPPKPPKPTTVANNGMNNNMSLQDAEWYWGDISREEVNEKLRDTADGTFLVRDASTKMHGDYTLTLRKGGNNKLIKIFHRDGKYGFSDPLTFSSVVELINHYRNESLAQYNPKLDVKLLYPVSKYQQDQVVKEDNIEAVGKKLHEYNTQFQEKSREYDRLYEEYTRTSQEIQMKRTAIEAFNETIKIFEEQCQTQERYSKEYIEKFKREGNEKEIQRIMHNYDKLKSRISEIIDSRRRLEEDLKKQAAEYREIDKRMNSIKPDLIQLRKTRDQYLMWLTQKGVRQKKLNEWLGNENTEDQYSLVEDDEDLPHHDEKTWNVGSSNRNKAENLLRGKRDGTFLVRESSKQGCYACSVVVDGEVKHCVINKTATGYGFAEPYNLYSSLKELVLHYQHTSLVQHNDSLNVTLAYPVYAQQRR
ATM, sequence (Q13315 whole entry): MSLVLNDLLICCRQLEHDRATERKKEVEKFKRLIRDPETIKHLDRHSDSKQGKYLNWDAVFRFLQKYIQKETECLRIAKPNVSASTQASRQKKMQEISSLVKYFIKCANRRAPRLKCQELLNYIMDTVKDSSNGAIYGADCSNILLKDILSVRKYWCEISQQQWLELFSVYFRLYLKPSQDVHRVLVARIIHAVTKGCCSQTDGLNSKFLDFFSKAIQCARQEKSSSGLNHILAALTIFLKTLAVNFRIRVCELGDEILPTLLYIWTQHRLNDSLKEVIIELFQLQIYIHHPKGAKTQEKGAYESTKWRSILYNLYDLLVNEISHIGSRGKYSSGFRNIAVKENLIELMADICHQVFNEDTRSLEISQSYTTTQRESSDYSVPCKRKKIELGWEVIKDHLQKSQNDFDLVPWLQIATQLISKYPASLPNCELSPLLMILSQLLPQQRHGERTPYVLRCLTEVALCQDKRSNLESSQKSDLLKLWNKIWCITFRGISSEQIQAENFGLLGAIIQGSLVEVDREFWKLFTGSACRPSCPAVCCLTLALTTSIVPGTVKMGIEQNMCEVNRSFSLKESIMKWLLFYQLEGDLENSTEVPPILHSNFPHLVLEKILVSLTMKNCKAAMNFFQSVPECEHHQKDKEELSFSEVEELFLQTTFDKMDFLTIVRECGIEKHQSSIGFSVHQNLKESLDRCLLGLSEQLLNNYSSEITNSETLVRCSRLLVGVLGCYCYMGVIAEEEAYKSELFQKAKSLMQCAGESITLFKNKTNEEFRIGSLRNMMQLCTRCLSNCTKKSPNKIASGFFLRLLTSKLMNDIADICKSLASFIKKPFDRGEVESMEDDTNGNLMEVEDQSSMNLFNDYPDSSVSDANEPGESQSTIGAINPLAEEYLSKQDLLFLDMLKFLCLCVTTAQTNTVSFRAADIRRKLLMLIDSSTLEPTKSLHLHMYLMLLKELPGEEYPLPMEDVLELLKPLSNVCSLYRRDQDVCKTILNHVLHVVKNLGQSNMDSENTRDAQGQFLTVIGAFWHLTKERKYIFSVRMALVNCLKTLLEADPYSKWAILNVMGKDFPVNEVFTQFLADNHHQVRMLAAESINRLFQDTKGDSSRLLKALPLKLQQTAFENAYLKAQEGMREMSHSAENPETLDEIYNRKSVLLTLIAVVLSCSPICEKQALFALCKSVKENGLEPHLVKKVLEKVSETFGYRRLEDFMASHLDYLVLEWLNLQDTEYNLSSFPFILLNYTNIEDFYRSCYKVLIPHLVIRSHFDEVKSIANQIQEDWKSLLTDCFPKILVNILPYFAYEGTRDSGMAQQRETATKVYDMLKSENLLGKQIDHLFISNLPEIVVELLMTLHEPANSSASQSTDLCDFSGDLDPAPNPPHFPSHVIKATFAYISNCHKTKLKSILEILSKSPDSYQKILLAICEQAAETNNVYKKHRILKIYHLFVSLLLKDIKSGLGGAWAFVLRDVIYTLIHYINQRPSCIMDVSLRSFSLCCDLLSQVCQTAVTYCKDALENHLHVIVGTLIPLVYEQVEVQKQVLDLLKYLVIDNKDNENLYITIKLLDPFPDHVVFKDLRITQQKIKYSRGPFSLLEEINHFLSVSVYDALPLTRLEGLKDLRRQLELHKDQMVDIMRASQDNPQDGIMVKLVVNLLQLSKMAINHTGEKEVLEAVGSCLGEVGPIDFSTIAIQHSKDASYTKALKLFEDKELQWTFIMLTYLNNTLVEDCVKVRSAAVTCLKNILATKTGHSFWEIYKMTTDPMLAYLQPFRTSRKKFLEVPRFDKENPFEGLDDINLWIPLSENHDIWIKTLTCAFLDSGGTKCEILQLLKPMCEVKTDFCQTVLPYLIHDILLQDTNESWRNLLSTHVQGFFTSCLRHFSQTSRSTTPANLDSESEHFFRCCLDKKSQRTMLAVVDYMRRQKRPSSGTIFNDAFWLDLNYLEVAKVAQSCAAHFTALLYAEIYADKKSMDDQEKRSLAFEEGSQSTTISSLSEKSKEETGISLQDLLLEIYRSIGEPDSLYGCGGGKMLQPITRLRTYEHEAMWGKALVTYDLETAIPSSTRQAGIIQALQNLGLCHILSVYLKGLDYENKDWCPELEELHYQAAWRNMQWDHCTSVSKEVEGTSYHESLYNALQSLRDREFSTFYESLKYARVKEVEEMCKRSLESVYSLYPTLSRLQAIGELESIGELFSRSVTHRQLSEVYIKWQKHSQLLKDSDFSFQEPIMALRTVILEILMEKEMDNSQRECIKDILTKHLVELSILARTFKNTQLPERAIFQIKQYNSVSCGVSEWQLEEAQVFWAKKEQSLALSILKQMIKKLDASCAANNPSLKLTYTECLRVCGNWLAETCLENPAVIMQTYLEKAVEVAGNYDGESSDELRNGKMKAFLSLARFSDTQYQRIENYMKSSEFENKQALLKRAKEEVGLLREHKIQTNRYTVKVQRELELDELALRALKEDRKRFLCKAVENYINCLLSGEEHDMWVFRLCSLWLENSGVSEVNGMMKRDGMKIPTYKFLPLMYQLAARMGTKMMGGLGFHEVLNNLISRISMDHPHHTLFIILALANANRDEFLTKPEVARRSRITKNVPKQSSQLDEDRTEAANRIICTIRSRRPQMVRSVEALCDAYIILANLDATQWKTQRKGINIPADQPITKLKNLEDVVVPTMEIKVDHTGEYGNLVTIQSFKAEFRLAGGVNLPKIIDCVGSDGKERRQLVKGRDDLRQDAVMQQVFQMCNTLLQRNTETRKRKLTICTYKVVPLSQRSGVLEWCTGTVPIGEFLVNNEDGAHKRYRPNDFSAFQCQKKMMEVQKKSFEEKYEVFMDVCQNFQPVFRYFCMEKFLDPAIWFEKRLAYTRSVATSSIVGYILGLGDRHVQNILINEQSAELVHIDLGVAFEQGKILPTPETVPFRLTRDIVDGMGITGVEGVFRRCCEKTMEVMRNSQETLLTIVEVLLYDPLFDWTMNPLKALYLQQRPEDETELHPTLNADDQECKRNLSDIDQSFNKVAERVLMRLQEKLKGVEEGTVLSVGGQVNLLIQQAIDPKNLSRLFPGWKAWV
T1 sequence (Q13315 whole entry, change not shown): as the sequence (Q13315 whole entry) above

Cc1cc(OCc2cnc([N+](=O)[O-])n2C)ccc1Nc1cc2c(cn1)n(C)c(=O)n2C1CCCC1 [Compound 234, 1-Cyclopentyl-3-methyl-6-((2-methyl-4-((1-methyl-2-nitro-1H-imidazol-5-yl)methoxy)phenyl)amino)-1,3-dihydro-2H-imidazo[4,5-c]pyridin-2-one]
IC50 [1, 14]: 0.766 µM
IC50 [1, 15]: 0.766 µM
IC50 [2]: 0.877 µM
IC50 [3]: > 100 µM
IC50 [4]: > 100 µM
IC50 [5]: 10.6 µM
S50 [5]: 10.9 µM
radiosensitisation / differential growth inhibition of UT-SCC-54C cells [5]: did not display any differential growth inhibition
radiosensitisation / differential growth inhibition of HAP1 cells [6]: did not demonstrate any differential growth inhibition
IC50 [6]: 9.74 µM
radiosensitisation / differential growth inhibition of DNA-PK null HAP1 line [7]: did not demonstrate any differential growth inhibition
IC50 [7]: 8.6 µM
inhibition of radiation-induced Ser2056 autophosphorylation under anoxia ([8]; anoxic, FIG. 6 (20 μM)): able to inhibit phosphorylation
inhibition of Ser2056 on DNA-PKcs ([8]; oxia, 10 Gy, FIG. 7 (10 μM)): did not inhibit
inhibition of Ser2056 autophosphorylation under oxia ([8]; oxic, 10 Gy, FIG. 5 (20 μM)): little inhibition
inhibition of phosphorylation of Ser1981 on ATM [9]: did not inhibit
D1 (radiation dose for 1% surviving fraction) ([10]; 0% O2, compound conc 10 μM): 9.72 Gy
D10 (radiation dose for 10% surviving fraction) ([10]; 0% O2, compound conc 10 μM): 6.78 Gy
SER1 (sensitiser enhancement ratio at 1% surviving fraction) ([10]; 0% O2, compound conc 10 μM): 1.25
SER10 (sensitiser enhancement ratio at 10% surviving fraction) ([10]; 0% O2, compound conc 10 μM): 1.79
Plating efficiency drug/no drug ([10]; 0% O2, compound conc 10 μM): 1.01
D1 (radiation dose for 1% surviving fraction) ([10]; 20% O2, compound conc 10 μM): 7.43 Gy
D10 (radiation dose for 10% surviving fraction) ([10]; 20% O2, compound conc 10 μM): 4.96 Gy
SER1 (sensitiser enhancement ratio at 1% surviving fraction) ([10]; 20% O2, compound conc 10 μM): 1.16
SER10 (sensitiser enhancement ratio at 10% surviving fraction) ([10]; 20% O2, compound conc 10 μM): 1.13
Plating efficiency drug/no drug ([10]; 20% O2, compound conc 10 μM): 1.57
SER (sensitiser enhancement ratio) [10]: 1.37
radiosensitisation of UT-SCC-54C cells under oxic conditions [10]: does not
IC50 [11, 16]: 30000 nM
IC50 [11, 17]: 30000 nM

COc1ccc(N(C(=O)OCc2cnc([N+](=O)[O-])n2C)c2cc3c(cn2)n(C)c(=O)n3C2CCOCC2)c(C)c1 [Compound 248, (1-Methyl-2-nitro-1H-imidazol-5-yl)methyl (4-methoxy-2-methylphenyl)(3-methyl-2-oxo-1-(tetrahydro-2H-pyran-4-yl)-2,3-dihydro-1H-imidazo[4,5-c]pyridin-6-yl)carbamate]
IC50 [1, 14]: 0.0185 µM and 0.14 µM
IC50 [1, 15]: 0.0185 µM
IC50 [2]: 107 µM and > 100 µM
IC50 [3]: > 100 µM
IC50 [4]: > 100 µM
IC50 [5]: > 10 µM
S50 [5]: >10 µM
radiosensitisation / differential growth inhibition of UT-SCC-54C cells [5]: did not display any differential growth inhibition
radiosensitisation / differential growth inhibition of HAP1 cells [6]: did not demonstrate any differential growth inhibition
IC50 [6]: > 10 µM
radiosensitisation / differential growth inhibition of DNA-PK null HAP1 line [7]: did not demonstrate any differential growth inhibition
IC50 [7]: > 10 µM
D1 (radiation dose for 1% surviving fraction) ([10]; 0% O2, compound conc 1 μM): 13.8 Gy
D10 (radiation dose for 10% surviving fraction) ([10]; 0% O2, compound conc 1 μM): 8.57 Gy
SER1 (sensitiser enhancement ratio at 1% surviving fraction) ([10]; 0% O2, compound conc 1 μM): 1.71
SER10 (sensitiser enhancement ratio at 10% surviving fraction) ([10]; 0% O2, compound conc 1 μM): 1.73
Plating efficiency drug/no drug ([10]; 0% O2, compound conc 1 μM): 1.13
D1 (radiation dose for 1% surviving fraction) ([10]; 20% O2, compound conc 1 μM): 9.34 Gy
D10 (radiation dose for 10% surviving fraction) ([10]; 20% O2, compound conc 1 μM): 5.61 Gy
SER1 (sensitiser enhancement ratio at 1% surviving fraction) ([10]; 20% O2, compound conc 1 μM): 1.04
SER10 (sensitiser enhancement ratio at 10% surviving fraction) ([10]; 20% O2, compound conc 1 μM): 1.12
Plating efficiency drug/no drug ([10]; 20% O2, compound conc 1 μM): 1.21
SER (sensitiser enhancement ratio) [10]: 1.82
radiosensitisation of UT-SCC-54C cells under oxic conditions [10]: does not
reduction in clonogens/gram of tumour, compound with radiation compared to radiation alone ([12]; IP 50 mg/kg 15 min before and 6 h after 13 Gy whole-body irradiation): smaller, but significant (p=0.018) effect
reduction in clonogens/gram of tumour tissue, compound alone ([12]; IP 2 x 50 mg/kg, no radiation, compared to DMSO control): no reduction
metabolism of prodrug by UT-SCC-54C cells under anoxic conditions (release of 121) ([13]; anoxic): selectively metabolised
metabolism of prodrug by UT-SCC-54C cells under oxic conditions ([13]; oxic): not under oxic conditions
IC50 [11, 16]: ≥ 10000 nM
IC50 [11, 17]: > 100000 nM
IC50 ([11]; read-out: Inhibition of kinase activity (as IC50) mTOR, 10 μM ATP, mean of two replicates, Table 12): > 100000 nM
